Literature values in patent US11471437B2, “Compositions and methods for treating cannabinoid hyperemesis syndrome with a cannabinoid receptor antagonist” (Opiant Pharmaceuticals, Inc., priority 2019, dated 2022).

Columns and labels:
[1] = cited from earlier work
CB1 receptor [2] = biological target: T1, CB1 receptor (Homo sapiens, UniProt P21554); parameters: host or cells: human volunteers (in vivo); conditions: oral administration, normal volunteers; cited from earlier work
CB1 receptor [3] = biological target: T1, CB1 receptor; conditions: cited from earlier work
[4] = oral formulation for obesity and smoking cessation; cited from earlier work

T1 sequence (P21554 whole entry): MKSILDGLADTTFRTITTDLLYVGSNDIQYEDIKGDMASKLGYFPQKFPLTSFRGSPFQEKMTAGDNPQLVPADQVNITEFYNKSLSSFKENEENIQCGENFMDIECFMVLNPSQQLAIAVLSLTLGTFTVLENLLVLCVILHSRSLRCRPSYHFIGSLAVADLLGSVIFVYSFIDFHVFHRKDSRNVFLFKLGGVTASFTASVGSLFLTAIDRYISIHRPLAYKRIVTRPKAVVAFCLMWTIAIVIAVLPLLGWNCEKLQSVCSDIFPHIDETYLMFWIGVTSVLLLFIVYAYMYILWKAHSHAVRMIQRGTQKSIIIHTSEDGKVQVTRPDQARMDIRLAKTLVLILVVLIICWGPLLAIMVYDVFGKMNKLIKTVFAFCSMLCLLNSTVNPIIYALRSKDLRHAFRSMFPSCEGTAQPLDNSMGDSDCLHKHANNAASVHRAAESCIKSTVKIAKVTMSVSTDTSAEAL

SMILES	log P [1]	Prevention (block) of pharmacological effects of smoked or inhaled THC (CB1 receptor [2])	Potency and selectivity for CB1 (CB1 receptor [3])	Side effects [4]
CS(=O)(=O)N(c1cc(F)cc(F)c1)C1CN(C(c2ccc(Cl)cc2)c2ccc(Cl)cc2)C1 (racemic) [drinabant, (±)-N-{1-[bis(4-chlorophenyl)methyl]-3-azetidinyl}-N-(3,5-difluorophenyl)methanesulfonamide]	high	can prevent (that is, block) some of the pharmacological effects of smoked or inhaled THC	potent and selective for CB1	
Cc1c(C(=O)NN2CCCCC2)nn(-c2ccc(Cl)cc2Cl)c1-c1ccc(Cl)cc1 [Rimonabant, 5-(4-chlorophenyl)-1-(2,4-dichloro-phenyl)-4-methyl-N-(piperidin-1-yl)-1H-pyrazole-3-carboxamide]				concerning side effects including psychiatric effects such as depression and mood alterations
CCc1c(C(=O)NN2CCCCC2)nn(-c2ccc(Cl)cc2Cl)c1-c1ccc(Br)cc1 [surinabant]		can prevent (that is, block) some of the pharmacological effects of smoked or inhaled THC		
